Earlier results on 2 compounds are cited in patent US20230117831A1, “MULTI-FUNCTIONAL CHIMERIC MOLECULES” (THE BROAD INSTITUTE, INC., priority 2020, published 2023).

What all share (settings): cited from earlier work
The target in data set [1] is T1, PKCalpha (Homo sapiens, UniProt P17252).
In data set [2] the target is PKC beta (Homo sapiens, UniProt P05771).
The target in data set [3] is PKC gamma (Homo sapiens, UniProt P05129).
In data set [4] the target is PKC delta (Homo sapiens, UniProt Q05655).
Chain of PKC delta (Q05655 whole entry): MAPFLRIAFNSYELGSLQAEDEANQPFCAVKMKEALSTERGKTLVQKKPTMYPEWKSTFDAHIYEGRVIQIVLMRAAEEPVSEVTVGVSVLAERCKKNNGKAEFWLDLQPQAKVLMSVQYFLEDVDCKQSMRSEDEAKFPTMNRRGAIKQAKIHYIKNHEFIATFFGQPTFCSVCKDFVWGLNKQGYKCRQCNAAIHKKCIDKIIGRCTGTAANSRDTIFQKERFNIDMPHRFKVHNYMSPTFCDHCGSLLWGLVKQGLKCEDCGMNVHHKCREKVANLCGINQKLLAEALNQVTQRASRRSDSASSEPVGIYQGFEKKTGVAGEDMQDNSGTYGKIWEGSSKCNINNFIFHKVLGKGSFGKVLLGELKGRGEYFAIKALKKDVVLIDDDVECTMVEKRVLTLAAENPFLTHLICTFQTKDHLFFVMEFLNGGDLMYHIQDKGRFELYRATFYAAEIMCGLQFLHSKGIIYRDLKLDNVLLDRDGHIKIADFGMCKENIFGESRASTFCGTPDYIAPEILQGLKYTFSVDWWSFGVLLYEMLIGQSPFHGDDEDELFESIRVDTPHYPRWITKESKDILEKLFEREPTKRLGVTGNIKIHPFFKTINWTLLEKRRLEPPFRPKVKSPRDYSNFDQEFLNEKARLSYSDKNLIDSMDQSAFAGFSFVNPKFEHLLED
Data set [5] deals with T2, PKC epsilon (Homo sapiens, UniProt Q02156).
T2 sequence (Q02156 1-737): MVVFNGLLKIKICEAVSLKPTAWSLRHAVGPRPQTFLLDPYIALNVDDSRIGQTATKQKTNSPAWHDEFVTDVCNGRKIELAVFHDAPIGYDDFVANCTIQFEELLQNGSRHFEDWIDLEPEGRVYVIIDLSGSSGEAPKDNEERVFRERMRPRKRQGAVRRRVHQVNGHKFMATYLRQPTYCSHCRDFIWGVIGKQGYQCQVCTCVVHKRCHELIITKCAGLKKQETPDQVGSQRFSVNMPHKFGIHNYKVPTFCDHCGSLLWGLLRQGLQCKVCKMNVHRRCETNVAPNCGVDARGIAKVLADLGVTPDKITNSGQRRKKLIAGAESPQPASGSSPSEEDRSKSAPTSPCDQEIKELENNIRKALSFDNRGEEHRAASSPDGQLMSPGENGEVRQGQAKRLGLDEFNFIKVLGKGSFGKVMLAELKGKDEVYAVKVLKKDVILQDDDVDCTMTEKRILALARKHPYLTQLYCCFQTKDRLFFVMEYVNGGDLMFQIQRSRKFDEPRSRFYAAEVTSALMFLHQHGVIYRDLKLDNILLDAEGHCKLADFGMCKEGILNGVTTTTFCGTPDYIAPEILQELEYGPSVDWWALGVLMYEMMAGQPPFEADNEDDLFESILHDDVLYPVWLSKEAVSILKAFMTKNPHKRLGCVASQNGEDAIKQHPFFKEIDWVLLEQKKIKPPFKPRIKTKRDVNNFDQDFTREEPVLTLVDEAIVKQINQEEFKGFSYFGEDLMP

Data set [6] deals with breast carcinoma cell lines MCF-7 and MDA-MB-231.
Data set [7] has as its target T1, PKCalpha. The source holds these as a separate data set.
Data set [8] deals with VEGFR (Homo sapiens, UniProt P35968).
Chain of VEGFR (P35968 806-1171 limits assumed): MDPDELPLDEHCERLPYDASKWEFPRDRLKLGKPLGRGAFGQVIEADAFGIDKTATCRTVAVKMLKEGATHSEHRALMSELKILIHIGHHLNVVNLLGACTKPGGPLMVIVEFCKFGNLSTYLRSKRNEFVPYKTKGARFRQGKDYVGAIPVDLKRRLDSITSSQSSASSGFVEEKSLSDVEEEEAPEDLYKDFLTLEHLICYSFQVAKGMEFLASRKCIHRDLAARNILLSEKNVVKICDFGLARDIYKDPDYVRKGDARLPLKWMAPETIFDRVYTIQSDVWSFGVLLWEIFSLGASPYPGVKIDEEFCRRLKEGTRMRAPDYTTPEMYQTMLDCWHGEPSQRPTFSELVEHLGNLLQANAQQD

Chain of PKC beta (P05771 whole entry): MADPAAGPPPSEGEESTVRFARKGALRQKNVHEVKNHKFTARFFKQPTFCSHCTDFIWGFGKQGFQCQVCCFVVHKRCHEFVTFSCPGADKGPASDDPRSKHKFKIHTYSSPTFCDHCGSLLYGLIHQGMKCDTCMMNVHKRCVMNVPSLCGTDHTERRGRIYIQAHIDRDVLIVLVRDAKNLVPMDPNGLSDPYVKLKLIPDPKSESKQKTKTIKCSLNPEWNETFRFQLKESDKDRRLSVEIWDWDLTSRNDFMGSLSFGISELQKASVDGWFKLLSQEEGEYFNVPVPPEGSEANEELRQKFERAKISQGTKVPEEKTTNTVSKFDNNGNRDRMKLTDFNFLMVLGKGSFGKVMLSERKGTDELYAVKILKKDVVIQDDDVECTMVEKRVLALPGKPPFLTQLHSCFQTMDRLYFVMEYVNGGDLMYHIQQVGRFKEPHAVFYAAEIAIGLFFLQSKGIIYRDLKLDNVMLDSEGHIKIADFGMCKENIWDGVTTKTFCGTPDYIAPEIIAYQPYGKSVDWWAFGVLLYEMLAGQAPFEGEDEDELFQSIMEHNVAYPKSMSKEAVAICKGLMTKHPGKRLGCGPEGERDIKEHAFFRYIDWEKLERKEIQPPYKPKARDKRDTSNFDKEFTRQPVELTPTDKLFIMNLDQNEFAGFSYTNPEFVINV

For `CCCCCCCCC#Cc1ccc2c(c1)C[C@@H](CO)NC(=O)[C@H](C(C)C)N2C`, the Kd (commonly the free concentration of one partner at which half of the binding sites on the other are occupied at equilibrium, for simple one-to-one binding) is 14.7 nM in data set [1]; 17.4 nM in data set [2]; 40.7 nM in data set [3]; 122 nM in data set [4]; 142 nM in data set [5]. In addition, the “antiproliferative activity against breast carcinoma” value in data set [6] is reported as “antiproliferative activity”. In addition, the “down-regulation of PKCalpha” value in data set [7] is “preferentially down-regulates PKCalpha”.

Take `COc1cc2nccc(Oc3ccc(NC(=O)NC4CC4)c(Cl)c3)c2cc1C(N)=O` [Lenvatinib]: in data set [8], the Residence time is 17 min.
